Experimental data published in article PMC6332510, “Leishmanicidal Activity of (+)-Phyllanthidine and the Phytochemical Profile of Margaritaria nobilis (Phyllanthaceae)” (Molecules, 2015).
pIC50: −log10 of the molar value. “And” between values parts separate entries of the source, which are not always exact repeats. Identical values can stand only once. “Also recorded” adds a separate entry of the source.

Tests used:
[1] = system: Leishmania (L.) amazonensis promastigotes; assay: Anti-promastigote assay (MTT); type: cell-based
Description: Promastigotes from Leishmania (L.) amazonensis (MHOM/BR/26361) were obtained in NNN (Neal, Novy and Nicolle) medium from the Instituto Evandro Chagas and subsequently maintained in RPMI medium supplemented with 10% heat-inactivated fetal bovine serum (FBS) at 25 °C.
Leishmania (L.) amazonensis promastigotes (10^6 parasites/mL) were seeded in 24-well plates with RPMI medium without phenol, the medium was supplemented with 10% FBS, and the cells were then treated with different concentrations of (+)-phyllanthidine (10, 20, 50, 100 and 200 µg/mL). The cultures were incubated at 25 °C for 4 days without medium replacement. Every 24 h, aliquots were harvested and promastigotes were incubated with 20 µL of MTT (2 µg/mL) for 4 h. Then, 20 µL of DMSO was added to the wells, and the plate was allowed to shake for 30 min for complete solubilization. One known anti-leishmanial drug (Amphotericin B—0.5 µg/mL) was used as a positive control.

[2] = system: Leishmania (L.) amazonensis amastigotes; assay: Anti-amastigote assay in infected peritoneal macrophages; type: cell-based; conditions: for parasite (amastigote) reduction: infected macrophages, vs untreated cells
Description: (§1) Macrophages were obtained from the peritoneal cavity of male mouse BALB/c (Mus musculus), and the animals were sacrificed in a CO2 chamber (Insight®). The material was harvested with Hank’s solution, concentrated by centrifugation at 4 °C, cultured in a 24-well plate and incubated in an atmosphere containing 5% CO2 at 37 °C for 1 h. After that, non-adherent cells were washed with DMEM and incubated for 24 h with DMEM medium supplemented with 10% FBS. The experimental protocol was approved by the Committee on the Ethics of Animal Experiments (CEPAE, grant number 046-2015) of Universidade Federal do Pará.
Adherent peritoneal macrophages were infected with Leishmania (L.) amazonensis promastigotes (stationary growth phase) at a parasite/macrophage ratio of 10:1 and incubated for 3 h at 37 °C and 5% CO2. After 3 h, free parasites were removed by washing with PBS pH 7.2, and the cultures were treated with 50 and 100 µg/mL (+)-phyllanthidine for 48 h post infection, without replacing the culture medium. The cells were washed with PBS pH 7.2, fixed with methanol and stained with Giemsa. The number of parasites was determined by examining three cover slips for each treatment. At least 100 infected macrophages were counted, and the results were expressed as the survival percentage, in comparison with controls. Amphotericin B (0.5 µg/mL) was used as a positive control. The selectivity index (SI) was calculated as the ratio between the cytotoxicity and antiparasitic activity against intracellular amastigotes.

[3] = Cytotoxicity assay of host cells (MTT); type: cell-based, mouse BALB/c (Mus musculus); conditions: male, BALB/c, mouse, peritoneal macrophages
Description: as §1
(§2) MTT is a tetrazolium salt that is converted into blue formazan crystals that are insoluble in water after cleavage by mitochondrial dehydrogenases, which causes them to accumulate in viable cells. The procedure was performed according to Fotakis and Timbrell (2006), with some modifications. Macrophages treated with 10, 20, 50, 100 and 200 µg/mL of (+)-phyllanthidine for 48 h and untreated cells were incubated with MTT (0.5 mg/mL) dissolved in phosphate-buffered saline (PBS), pH 7.2 for 3 h in a humidified atmosphere containing 5% CO2 at 37 °C. […] The absorbance of each solution was recorded at an optical density (OD) of 570 nm using a spectrophotometer (Bio-Rad Model 450 Microplate Reader). The assay specificity was determined by using non-viable cells treated with 10% formaldehyde in PBS. […]

peritoneal macrophages = assay: Cytotoxicity assay of host cells (MTT); type: cell-based, mouse BALB/c (Mus musculus); conditions: 10-200 µg/mL, 48 h
Description: as §1, §2

[4] = system: Leishmania (L.) amazonensis promastigotes; assay: Ultrastructural assay (SEM and TEM); type: cell-based
Description: Scanning Electron Microscopy (SEM): Promastigotes were treated with 50 and 100 µg/mL of (+)-phyllanthidine for 4 days, and they were fixed with paraformaldehyde (4%) and glutaraldehyde (2.5%) in cacodylate buffer (0.1 M) for one hour. The cells were post-fixed in osmium tetroxide (1%), dehydrated in graded ethanol, brought to their critical point with CO2, coated with gold and analyzed in a Zeiss LEO 1450VP SEM (Göttingen, Germany).
Transmission Electron Microscopy (TEM): Promastigotes treated with 50 and 100 µg/mL (+)-phyllanthidine for 4 days were fixed with glutaraldehyde (2.5%) and paraformaldehyde (4%) in cacodylate buffer (0.1 M) for one hour. The parasites were post-fixed in an osmium tetroxide solution (1%) and ferrocyanide (0.8%), dehydrated in graded acetone and embedded in epoxy resin. Ultrathin sections were obtained, stained with uranyl acetate/lead citrate and examined with a Zeiss 906E TEM (Göttingen, Germany).

L. major-infected cell = system: L. major-infected cell; set-up: method as in PMID 16143535; conditions: compared with non-infected conditions; cited from earlier work
[5] = system: L. (V.) peruviana promastigote forms; set-up: method as in PMID 19489596; conditions: cited from earlier work
[6] = system: L. (V) braziliensis promastigote forms; set-up: method as in PMID 19489596; conditions: cited from earlier work
L. mexicana = system: L. mexicana; set-up: method as in doi:10.1080/13880200600878361; conditions: cited from earlier work
Leishmania amazonensis = system: Leishmania amazonensis; set-up: method as in PMID 19748254; conditions: cited from earlier work
L. braziliensis = system: L. braziliensis; set-up: method as in PMID 19748254; conditions: cited from earlier work
[7] = system: Leishmania infected-macrophages; set-up: method as in PMID 18164321; conditions: 250 μM; cited from earlier work
[8] = system: L. (L.) amazonensis promastigote; conditions: 72 h of treatment; cited from earlier work
[9] = system: L. (L.) amazonensis amastigote form; set-up: method as in PMID 20661748; conditions: 79 μM, 72 h; cited from earlier work

Compound: O=C1C=C2C=CC3CC2(O1)C1CCCCN1O3 (single isomer, unassigned; (+)) [(+)-phyllanthidine]
- IC50 ([1]; Leishmania, 96 h, 96 h of treatment): 82.4 µg/mL and 353 µM
- inhibition at 100 µg/mL ([1]; Leishmania, 100 µg/mL, 96 h of treatment, read-out: inhibition of promastigote growth): 67.7%
- parasite (amastigote) reduction ([2]; 50 μg/mL, 48 h): 75.5%
- parasite (amastigote) reduction ([2]; 100 μg/mL, 48 h): 83.96%
- IC50 ([2]; Leishmania, Peritoneal macrophage, 48 h of treatment): 49.1 µg/mL and 210 µM
- selectivity index (SI) ([2]; ratio between cytotoxicity (macrophages) and activity against intracellular amastigotes): 25.08
- CC50 at 48 h [3]: > 200 µg/mL
- cytotoxic effect on macrophages (peritoneal macrophages): no cytotoxic effects on macrophages; also recorded: No cytotoxic effect was detected
- promastigote ultrastructural changes (TEM) ([4]; 50 µg/mL, 96 h): kinetoplast swelling
- promastigote ultrastructural changes (TEM) ([4]; 100 µg/mL): increase in the number of acidocalcisome-like structures

Compound: C[C@@H]1[C@H](O)[C@@H](C)/C=C/C=C/C=C/C=C/C=C/C=C/C=C/[C@H](O[C@@H]2O[C@H](C)[C@@H](O)[C@H](N)[C@@H]2O)C[C@@H]2O[C@](O)(C[C@@H](O)C[C@@H](O)[C@H](O)CC[C@@H](O)C[C@@H](O)CC(=O)O[C@H]1C)C[C@H](O)[C@H]2C(=O)O [Amphotericin B, reference compound]
- reduction of promastigotes (positive control) ([1]; 0.5 μg/mL (0.54 µM), 96 h): 100%
- amastigote reduction (positive control) ([2]; 0.5 µg/mL (0.54 µM), 48 h): 90.42%

Compound: O=C(O[C@@H]1O[C@@H]2COC(=O)c3cc(O)c(O)c(O)c3-c3c(cc(O)c(O)c3O)C(=O)O[C@H]([C@H]1O)[C@@H]2O)c1cc(O)c(O)c(O)c1 [Corilagin, corilagin]
- iNOS and cytokine mRNA levels (L. major-infected cell): capable of enhancing the iNOS and cytokine mRNA levels

Compound: O=c1c(O)c(-c2ccc(O)cc2)oc2cc(O)cc(O)c12 [Kaempferol, kaempferol]
- leishmanicidal activity [5]: showed leishmanicidal activity
- leishmanicidal activity [6]: showed leishmanicidal activity

Compound: COC(=O)c1cc(O)c(O)c(O)c1 [Methyl galate, methyl gallate]
- pIC50 (L. mexicana): 4.47

Compound: C=C(C)[C@@H]1CC[C@]2(C(=O)O)CC[C@]3(C)[C@H](CC[C@@H]4[C@@]5(C)CC[C@H](O)C(C)(C)[C@@H]5CC[C@]43C)[C@@H]12 [betulinic acid]
- antiprotozoal activity (Leishmania amazonensis): No antiprotozoal activity
- antiprotozoal activity (L. braziliensis): No antiprotozoal activity

Compound: O=C(O)c1cc(O)c(O)c(O)c1 [gallic acid]
- NO-production [7]: modest NO-production
- parasite viability [7]: did not reduce parasite viability

Compound: CCC(C)C(=O)NC1CCC(=O)N(CCc2ccccc2)C1=O (centres unmarked) [julocrotine]
- reduction in promastigotes [8]: 54%
- reduction of amastigote form [9]: 80%

Compound: CCCCCCCCCCCCCCCCOP(=O)([O-])OCC[N+](C)(C)C [miltefosine, reference compound]
- pIC50 (L. mexicana): 6.30
